The values that follow come from US20240043404A1 (AbbVie Inc., priority 2009, published 2024).

Each structure is given as a SMILES string.

The subject of the first experiment is RS4;11 cells. Nature of the experiment: RS4;11 cell viability assay (CellTiter Glo).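 Further: acute lymphoblastic leukemia line RS4,11, EC50 derived from percentage of viable cells after treatment relative to untreated controls, cell killing taken as a measure of Bcl-2 inhibition.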 The experiment is classed as cell-based, human. The settings on record: Homo sapiens, RS4-11, 48 h, 50,000 cells per well, 10% human serum, 48 hours; read-out: RS4; 11 EC50 Values.
Experimental: The acute lymphoblastic leukemia (ALL) cell line RS4;11 was used as the primary human cell line to assess the cellular activity of Bcl-2 selective agents in vitro and their efficacy in vivo.
Cell cytotoxicity EC50 values were assessed using CellTiter Glo (Promega) according to the manufacturer's recommendations. The EC50 values were determined as a percentage of viable cells following treatment compared to the untreated control cells.
For the compound `CC1(C)CCC(CN2CCN(c3ccc(C(=O)NS(=O)(=O)c4ccc(NC5CN(C6CCOC6)C5)c([N+](=O)[O-])c4)c(Oc4cnc5[nH]ccc5c4)c3)CC2)=C(c2ccc(Cl)cc2)C1` (centres unmarked) [Example 117, 4-(4-{[2-(4-chlorophenyl)-4,4-dimethylcyclohex-1-en-1-yl]methyl}piperazin-1-yl)-N-({3-nitro-4-[(1-tetrahydrofuran-3-ylazetidin-3-yl)amino]phenyl}sulfonyl)-2-(1H-pyrrolo[2,3-b]pyridin-5-yloxy)benzamide], the EC50 amounted to 18.2 nM.
Consider `CC1(C)CCC(CN2CCN(c3ccc(C(=O)NS(=O)(=O)c4cc(Cl)c(NCC5CCOCC5)c(C#N)c4)c(Oc4cnc5[nH]ccc5c4)c3)CC2)=C(c2ccc(Cl)cc2)C1` [Example 52, N-({3-chloro-5-cyano-4-[(tetrahydro-2H-pyran-4-ylmethyl)amino]phenyl}sulfonyl)-4-(4-{[2-(4-chlorophenyl)-4,4-dimethylcyclohex-1-en-1-yl]methyl}piperazin-1-yl)-2-(1H-pyrrolo[2,3-b]pyridin-5-yloxy)benzamide], for which the EC50 was 200 nM.
For the compound `CC1(C)CC(c2ccc(Cl)cc2)=C(CN2CCN(c3ccc(C(=O)NS(=O)(=O)c4ccc(OCC5COCCO5)c([N+](=O)[O-])c4)c(Oc4cnc5[nH]ccc5c4)c3)CC2)CO1` (centres unmarked) [Example 32, 4-(4-{[4-(4-chlorophenyl)-6,6-dimethyl-5,6-dihydro-2H-pyran-3-yl]methyl}piperazin-1-yl)-N-{[4-(1,4-dioxan-2-ylmethoxy)-3-nitrophenyl]sulfonyl}-2-(1H-pyrrolo[2,3-b]pyridin-5-yloxy)benzamide], the EC50 was found to be 81.5 nM.
Turning to `CC1(C)CCC(CN2CCN(c3ccc(C(=O)NS(=O)(=O)c4ccc(NC[C@@H]5CCCOC5)c([N+](=O)[O-])c4)c(Oc4cnc5[nH]ccc5c4)c3)CC2)=C(c2ccc(Cl)cc2)C1` [Example 11, 4-(4-{[2-(4-chlorophenyl)-4,4-dimethylcyclohex-1-en-1-yl]methyl}piperazin-1-yl)-N-[(3-nitro-4-{[(3S)-tetrahydro-2H-pyran-3-ylmethyl]amino}phenyl)sulfonyl]-2-(1H-pyrrolo[2,3-b]pyridin-5-yloxy)benzamide], the EC50 is 13.9 nM.
Regarding `CC1(C)CCC(CN2CCN(c3ccc(C(=O)NS(=O)(=O)c4ccc(NCC5CN(C(CF)CF)CCO5)c([N+](=O)[O-])c4)c(Oc4cnc5[nH]ccc5c4)c3)CC2)=C(c2ccc(Cl)cc2)C1` (centres unmarked) [Example 252, 4-(4-{[2-(4-chlorophenyl)-4,4-dimethylcyclohex-1-en-1-yl]methyl}piperazin-1-yl)-N-{[4-({[4-(1,3-difluoropropan-2-yl)morpholin-2-yl]methyl}amino)-3-nitrophenyl]sulfonyl}-2-(1H-pyrrolo[2,3-b]pyridin-5-yloxy)benzamide], the EC50 is 3.47 nM.
With `CC1(C)CCC(CN2CCN(c3ccc(C(=O)NS(=O)(=O)c4ccc(NC5CCN(C6CC6)CC5)c(S(=O)(=O)C(F)(F)F)c4)c(Oc4cnc5[nH]ccc5c4)c3)CC2)=C(c2ccc(Cl)cc2)C1` [Example 190, 4-(4-{[2-(4-chlorophenyl)-4,4-dimethylcyclohex-1-en-1-yl]methyl}piperazin-1-yl)-N-({4-[(1-cyclopropylpiperidin-4-yl)amino]-3-[(trifluoromethyl)sulfonyl]phenyl}sulfonyl)-2-(1H-pyrrolo[2,3-b]pyridin-5-yloxy)benzamide], the EC50 turned out to be 551 nM.
As to `CC1(C)CCC(CN2CCN(c3ccc(C(=O)NS(=O)(=O)c4cnc(O[C@@H]5CCN(CC(F)F)C5)c(Cl)c4)c(Oc4cnc5[nH]ccc5c4)c3)CC2)=C(c2ccc(Cl)cc2)C1` [Example 261, N-[(5-chloro-6-{[(3R)-1-(2,2-difluoroethyl)pyrrolidin-3-yl]oxy}pyridin-3-yl)sulfonyl]-4-(4-{[2-(4-chlorophenyl)-4,4-dimethylcyclohex-1-en-1-yl]methyl}piperazin-1-yl)-2-(1H-pyrrolo[2,3-b]pyridin-5-yloxy)benzamide], the EC50 is 184 nM.

Still in this experiment, the particulars now being: Homo sapiens, RS4-11, Table 5, direct comparison Z=N with corresponding analogs Z=C; read-out: RS4; 11 EC50.
With `CC1(C)CCC(CN2CCN(c3ccc(C(=O)NS(=O)(=O)c4ccc(NC[C@@H]5CCCOC5)c([N+](=O)[O-])c4)c(Oc4cnc5[nH]ccc5c4)c3)CC2)=C(c2ccc(Cl)cc2)C1` [Example 11, 4-(4-{[2-(4-chlorophenyl)-4,4-dimethylcyclohex-1-en-1-yl]methyl}piperazin-1-yl)-N-[(3-nitro-4-{[(3S)-tetrahydro-2H-pyran-3-ylmethyl]amino}phenyl)sulfonyl]-2-(1H-pyrrolo[2,3-b]pyridin-5-yloxy)benzamide], the EC50 was 14 nM.
